Data reported in ChEMBL document CHEMBL4251634, “Synthesis and antimicrobial activity of pyrimidinyl 1,3,4-oxadiazoles, 1,3,4-thiadiazoles and 1,2,4-triazoles” (2018).
The source made the active and inactive calls. The calls are words filed in the database; no cut-off is given here.

What was measured:
Assay type in all cases: functional
Staphylococcus aureus [1] = assay: Antibacterial activity against Staphylococcus aureus assessed as diameter of inhibition zone at 12.5 ug/well after 24 hrs by agar well diffusion method
Staphylococcus aureus [2] = assay: Antibacterial activity against Staphylococcus aureus assessed as diameter of inhibition zone at 25 ug/well after 24 hrs by agar well diffusion method
Staphylococcus aureus [3] = assay: Antibacterial activity against Staphylococcus aureus assessed as diameter of inhibition zone at 50 ug/well after 24 hrs by agar well diffusion method
Staphylococcus aureus [4] = assay: Antibacterial activity against Staphylococcus aureus assessed as diameter of inhibition zone at 100 ug/well after 24 hrs by agar well diffusion method
Bacillus subtilis [5] = assay: Antibacterial activity against Bacillus subtilis assessed as diameter of inhibition zone at 12.5 ug/well after 24 hrs by agar well diffusion method
Bacillus subtilis [6] = assay: Antibacterial activity against Bacillus subtilis assessed as diameter of inhibition zone at 25 ug/well after 24 hrs by agar well diffusion method
Bacillus subtilis [7] = assay: Antibacterial activity against Bacillus subtilis assessed as diameter of inhibition zone at 50 ug/well after 24 hrs by agar well diffusion method
Bacillus subtilis [8] = assay: Antibacterial activity against Bacillus subtilis assessed as diameter of inhibition zone at 100 ug/well after 24 hrs by agar well diffusion method
Pseudomonas aeruginosa [9] = assay: Antibacterial activity against Pseudomonas aeruginosa assessed as diameter of inhibition zone at 12.5 ug/well after 24 hrs by agar well diffusion method
Pseudomonas aeruginosa [10] = assay: Antibacterial activity against Pseudomonas aeruginosa assessed as diameter of inhibition zone at 25 ug/well after 24 hrs by agar well diffusion method; conditions: for zone of inhibition at 25 µg/disc: read-out: DIZ
Pseudomonas aeruginosa [11] = assay: Antibacterial activity against Pseudomonas aeruginosa assessed as diameter of inhibition zone at 50 ug/well after 24 hrs by agar well diffusion method; conditions: read-out: DIZ
Pseudomonas aeruginosa [12] = assay: Antibacterial activity against Pseudomonas aeruginosa assessed as diameter of inhibition zone at 100 ug/well after 24 hrs by agar well diffusion method; conditions: read-out: DIZ
Klebsiella pneumoniae [13] = assay: Antibacterial activity against Klebsiella pneumoniae assessed as diameter of inhibition zone at 12.5 ug/well after 24 hrs by agar well diffusion method
Klebsiella pneumoniae [14] = assay: Antibacterial activity against Klebsiella pneumoniae assessed as diameter of inhibition zone at 25 ug/well after 24 hrs by agar well diffusion method
Klebsiella pneumoniae [15] = assay: Antibacterial activity against Klebsiella pneumoniae assessed as diameter of inhibition zone at 50 ug/well after 24 hrs by agar well diffusion method; conditions: for zone of inhibition at 50 µg/disc: read-out: DIZ
Klebsiella pneumoniae [16] = assay: Antibacterial activity against Klebsiella pneumoniae assessed as diameter of inhibition zone at 100 ug/well after 24 hrs by agar well diffusion method; conditions: read-out: DIZ
Aspergillus niger [17] = assay: Antifungal activity against Aspergillus niger assessed as diameter of inhibition zone at 12.5 ug/well after 48 hrs by agar well diffusion method
Aspergillus niger [18] = assay: Antifungal activity against Aspergillus niger assessed as diameter of inhibition zone at 25 ug/well after 48 hrs by agar well diffusion method
Aspergillus niger [19] = assay: Antifungal activity against Aspergillus niger assessed as diameter of inhibition zone at 50 ug/well after 48 hrs by agar well diffusion method; conditions: for zone of inhibition at 50 µg/disc: read-out: DIZ
Aspergillus niger [20] = assay: Antifungal activity against Aspergillus niger assessed as diameter of inhibition zone at 100 ug/well after 48 hrs by agar well diffusion method; conditions: for zone of inhibition at 100 µg/disc: read-out: DIZ
Penicillium chrysogenum [21] = assay: Antifungal activity against Penicillium chrysogenum assessed as diameter of inhibition zone at 12.5 ug/well after 48 hrs by agar well diffusion method
Penicillium chrysogenum [22] = assay: Antifungal activity against Penicillium chrysogenum assessed as diameter of inhibition zone at 25 ug/well after 48 hrs by agar well diffusion method
Penicillium chrysogenum [23] = assay: Antifungal activity against Penicillium chrysogenum assessed as diameter of inhibition zone at 50 ug/well after 48 hrs by agar well diffusion method
Penicillium chrysogenum [24] = assay: Antifungal activity against Penicillium chrysogenum assessed as diameter of inhibition zone at 100 ug/well after 48 hrs by agar well diffusion method

SMILES | diameter of the inhibition zone (DIZ) (Staphylococcus aureus [1]) | diameter of the inhibition zone (DIZ) (Staphylococcus aureus [2]) | diameter of the inhibition zone (DIZ) (Staphylococcus aureus [3]) | diameter of the inhibition zone (DIZ) (Staphylococcus aureus [4]) | diameter of the inhibition zone (DIZ) (Bacillus subtilis [5]) | diameter of the inhibition zone (DIZ) (Bacillus subtilis [6]) | diameter of the inhibition zone (DIZ) (Bacillus subtilis [7]) | diameter of the inhibition zone (DIZ) (Bacillus subtilis [8]) | diameter of the inhibition zone (DIZ) (Pseudomonas aeruginosa [9]) | zone of inhibition at 25 µg/disc (Pseudomonas aeruginosa [10]) [mm] | zone of inhibition at 50 µg/disc (Pseudomonas aeruginosa [11]) [mm] | zone of inhibition at 100 µg/disc (Pseudomonas aeruginosa [12]) [mm] | diameter of the inhibition zone (DIZ) (Klebsiella pneumoniae [13]) | diameter of the inhibition zone (DIZ) (Klebsiella pneumoniae [14]) | zone of inhibition at 50 µg/disc (Klebsiella pneumoniae [15]) [mm] | zone of inhibition at 100 µg/disc (Klebsiella pneumoniae [16]) [mm] | diameter of the inhibition zone (DIZ) (Aspergillus niger [17]) | diameter of the inhibition zone (DIZ) (Aspergillus niger [18]) | zone of inhibition at 50 µg/disc (Aspergillus niger [19]) [mm] | zone of inhibition at 100 µg/disc (Aspergillus niger [20]) [mm] | other results
Cc1ccc(-c2nnc(CSc3cc(C)nc(SCc4nnc(-c5ccc(C)cc5)o4)n3)o2)cc1 | inactive | inactive | inactive | inactive | inactive | inactive | inactive | inactive | inactive | 8 | 10 | 12 | inactive | inactive | 8 | 10 | inactive | inactive | 7 | 9 | diameter of the inhibition zone (DIZ) (Penicillium chrysogenum [21]): inactive; diameter of the inhibition zone (DIZ) (Penicillium chrysogenum [22]): inactive; diameter of the inhibition zone (DIZ) (Penicillium chrysogenum [23]): inactive; diameter of the inhibition zone (DIZ) (Penicillium chrysogenum [24]): inactive
Cc1cc(SCc2nnc(-c3ccccc3)o2)nc(SCc2nnc(-c3ccccc3)o2)n1 | inactive | inactive | inactive | inactive | inactive | inactive | inactive |  |  | 9 | 11 | 14 | inactive |  | 9 | 12 |  |  | 18 | 21 | zone of inhibition at 100 µg/disc (Bacillus subtilis [8]; read-out: DIZ): 7 mm; zone of inhibition at 12.5 µg/disc (Pseudomonas aeruginosa [9]; read-out: DIZ): 7 mm; zone of inhibition at 25 µg/disc (Klebsiella pneumoniae [14]; read-out: DIZ): 7 mm; zone of inhibition at 12.5 µg/disc (Aspergillus niger [17]; read-out: DIZ): 14 mm; zone of inhibition at 25 µg/disc (Aspergillus niger [18]; read-out: DIZ): 16 mm; zone of inhibition at 12.5 µg/disc (Penicillium chrysogenum [21]; read-out: DIZ): 8 mm; zone of inhibition at 25 µg/disc (Penicillium chrysogenum [22]; read-out: DIZ): 10 mm; zone of inhibition at 50 µg/disc (Penicillium chrysogenum [23]; read-out: DIZ): 11 mm; zone of inhibition at 100 µg/disc (Penicillium chrysogenum [24]; read-out: DIZ): 13 mm
COc1ccc(-c2nnc(CSc3cc(C)nc(SCc4nnc(-c5ccc(OC)cc5)s4)n3)s2)cc1 | inactive | inactive | inactive | inactive | inactive | inactive | inactive | inactive | inactive |  | 8 | 10 | inactive | inactive |  | 13 | inactive | inactive |  |  | diameter of the inhibition zone (DIZ) (Pseudomonas aeruginosa [10]): inactive; diameter of the inhibition zone (DIZ) (Klebsiella pneumoniae [15]): inactive; diameter of the inhibition zone (DIZ) (Aspergillus niger [19]): inactive; diameter of the inhibition zone (DIZ) (Aspergillus niger [20]): inactive; diameter of the inhibition zone (DIZ) (Penicillium chrysogenum [21]): inactive; diameter of the inhibition zone (DIZ) (Penicillium chrysogenum [22]): inactive; diameter of the inhibition zone (DIZ) (Penicillium chrysogenum [23]): inactive; diameter of the inhibition zone (DIZ) (Penicillium chrysogenum [24]): inactive
